Assay results published in patent publication US9315490B2, “2,5-substituted pyrimidines” (Grünenthal GmbH, priority 2014, dated 2016).

Molecular target: T1, human PDE4B1 (Homo sapiens, UniProt Q07343)
T1 construct: host or cells: Sf9 cells
Assay: TR-FRET assay using the LANCE Ultra cAMP kit to determine the activity of hPDE4B1
Type: biochemical
Settings: test concentration 1 μM, read-out: Inhibition in % (inhibition of PDE4B)
From the text: TR-FRET Assay Using the LANCE® Ultra cAMP Kit to Determine the Activity of hPDE4B1
The effects of the compounds on the activity of the human PDE4B1 was quantified by measuring the production of 5′AMP from cAMP using a human recombinant enzyme expressed in Sf9 cells and the LANCE® Ultra cAMP kit, a TR-FRET detection method from PerkinElmer. The human PDE4B1 enzyme was purchased from SignalChem Lifesciences (Catalog# P92-31BG, Lot# H296-2).
The test compound, reference compound or water (control) was mixed with the enzyme (0.96 U) in a reaction buffer containing 50 mM Tris-HCl, 50 mM MgCl2 and 5 mM DTT (pH 8.5). Thereafter, the reaction was initiated by addition of 500 nM cAMP (substrate) and the mixture was incubated for 30 minutes at room temperature. For control basal measurements, the enzyme was omitted from the reaction mixture. After 30 minutes, the reaction was stopped and diluted by a factor of 100 with the reaction buffer supplemented with 500 μM IBMX. The fluorescence donor (europium chelate-labeled cAMP) and the fluorescence acceptor (anti-cAMP antibody labeled with the ULight™ dye) were then added together with 500 μM IBMX to a 10 μl aliquot. After 60 minutes, the fluorescence transfer corresponding to the amount of residual cAMP was measured at λex=337 nm, λem=620 nm and λem=665 nm using a microplate reader (PHERAstar, BMG). The enzyme activity was determined by dividing the signal measured at 665 nm by that measured at 620 nm (ratio) multiplied by 10000. The results were expressed as percent inhibition of the control enzyme activity. IC50 values (IC50=concentration causing a half-maximal inhibition of control specific activity) were derived from dose response measurements with ten different concentrations (n=3; N=1-3).

T1 sequence (Q07343 whole entry): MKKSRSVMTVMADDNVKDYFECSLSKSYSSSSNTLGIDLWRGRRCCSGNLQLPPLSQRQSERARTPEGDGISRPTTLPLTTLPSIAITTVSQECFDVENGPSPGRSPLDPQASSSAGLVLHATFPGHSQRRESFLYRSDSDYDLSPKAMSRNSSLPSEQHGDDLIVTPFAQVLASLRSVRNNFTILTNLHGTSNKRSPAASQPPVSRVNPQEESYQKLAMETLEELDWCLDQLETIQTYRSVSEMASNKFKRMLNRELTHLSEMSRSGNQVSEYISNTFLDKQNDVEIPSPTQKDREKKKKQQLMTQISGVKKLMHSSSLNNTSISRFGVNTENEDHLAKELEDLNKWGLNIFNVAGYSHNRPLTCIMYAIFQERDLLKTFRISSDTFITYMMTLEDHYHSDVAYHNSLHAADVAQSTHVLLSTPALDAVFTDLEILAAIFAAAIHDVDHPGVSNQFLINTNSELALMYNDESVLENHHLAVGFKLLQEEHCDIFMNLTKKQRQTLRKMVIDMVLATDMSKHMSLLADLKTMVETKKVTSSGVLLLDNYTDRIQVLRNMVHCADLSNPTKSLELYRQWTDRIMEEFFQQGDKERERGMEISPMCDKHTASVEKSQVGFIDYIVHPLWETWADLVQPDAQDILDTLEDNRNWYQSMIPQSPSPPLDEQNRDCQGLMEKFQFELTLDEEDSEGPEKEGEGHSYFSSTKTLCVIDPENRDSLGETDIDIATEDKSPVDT

Row | Compound | inhibition at 1 µM [%]
1 | Cc1ccc(F)c(-c2cnc(-n3cc([S+](C)[O-])c4ccc(C(=O)N5C[C@@H]6C[C@H]5CN6)cc43)nc2)c1 (stereo partly drawn) [Example 249, (1S,4S)-2,5-Diazabicyclo[2.2.1]heptan-2-yl(1-(5-(2-fluoro-5-methylphenyl)pyrimidin-2-yl)-3-(methylsulfinyl)-1H-indol-6-yl)methanone] | 93
2 | C[S+]([O-])c1cn(-c2ncc(-c3cc(C4CC4)ccn3)cn2)c2cc(C(=O)N3CCOCC3)ccc12 (centres unmarked) [Example 258, (1-(5-(4-Cyclopropylpyridin-2-yl)pyrimidin-2-yl)-3-(methylsulfinyl)-1H-indol-6-yl)(morpholino)methanone] | 92
3 | CCOc1ccnc(-c2cnc(-n3cc([S+](C)[O-])c4ccc(C(=O)N5CCOCC5)cc43)nc2)c1 (centres unmarked) [Example 260, (1-(5-(4-Ethoxypyridin-2-yl)pyrimidin-2-yl)-3-(methylsulfinyl)-1H-indol-6-yl)(morpholino)methanone] | 95
4 | CCOc1ccc(F)c(-c2cnc(-n3cc([S+](C)[O-])c4ccc(C(=O)N5CCOCC5)cc43)nc2)c1 (centres unmarked) [Example 261, (1-(5-(5-Ethoxy-2-fluorophenyl)pyrimidin-2-yl)-3-(methylsulfinyl)-1H-indol-6-yl)(morpholino)methanone] | 55
5 | C[S+]([O-])c1cn(-c2ncc(-c3ccc4c(c3)OCO4)cn2)c2cc(C(=O)N3CCOCC3)ccc12 (centres unmarked) [Example 262, (1-(5-(Benzo[d][1,3]dioxol-5-yl)pyrimidin-2-yl)-3-(methylsulfinyl)-1H-indol-6-yl)(morpholino)methanone] | 70
6 | C[S+]([O-])c1cn(-c2ncc(-c3cc(OC(F)(F)F)ccc3F)cn2)c2cc(C(=O)N3CCOCC3)ccc12 (centres unmarked) [Example 263, (1-(5-(2-Fluoro-5-(trifluoromethoxy)phenyl)pyrimidin-2-yl)-3-(methylsulfinyl)-1H-indol-6-yl)(morpholino)methanone] | 97
7 | CC(=O)Oc1ccc(F)c(-c2cnc(-n3cc([S+](C)[O-])c4ccc(C(=O)N5CCOCC5)cc43)nc2)c1 (centres unmarked) [Example 264, 4-Fluoro-3-(2-(3-(methylsulfinyl)-6-(morpholine-4-carbonyl)-1H-indol-1-yl)pyrimidin-5-yl)phenyl acetate] | 94
8 | Cc1ccc(F)c(-c2cnc(-n3cc([S+](C)[O-])c4ccc(C(=O)N5CCCC5)cc43)nc2)c1 (centres unmarked) [Example 265, (1-(5-(2-Fluoro-5-methylphenyl)pyrimidin-2-yl)-3-(methylsulfinyl)-1H-indol-6-yl)(pyrrolidin-1-yl)methanone] | 98
9 | CCc1ccc(F)c(-c2cnc(-n3cc([S+](C)[O-])c4ccc(C(=O)N5CCCC5)cc43)nc2)c1 (centres unmarked) [Example 275, (1-(5-(5-Ethyl-2-fluorophenyl)pyrimidin-2-yl)-3-(methylsulfinyl)-1H-indol-6-yl)(pyrrolidin-1-yl)methanone] | 113
10 | CCc1ccc(F)c(-c2cnc(-n3cc([S+](C)[O-])c4ccc(C(=O)N5CCOCC5)cc43)nc2)c1 (centres unmarked) [Example 276, (1-(5-(5-Ethyl-2-fluorophenyl)pyrimidin-2-yl)-3-(methylsulfinyl)-1H-indol-6-yl)(morpholino)methanone] | 106
11 | COc1ccc(F)c(-c2cnc(-n3cc([S+](C)[O-])c4ccc(C(=O)N(C)CC(N)=O)cc43)nc2)c1 (centres unmarked) [Example 279, N-(2-Amino-2-oxoethyl)-1-(5-(2-fluoro-5-methoxyphenyl)pyrimidin-2-yl)-N-methyl-3-(methylsulfinyl)-1H-indole-6-carboxamide] | 97
12 | CCc1ccc(F)c(-c2cnc(-n3cc([S+](C)[O-])c4ccc(C(=O)N(C)CC(N)=O)cc43)nc2)c1 (centres unmarked) [Example 280, N-(2-Amino-2-oxoethyl)-1-(5-(5-ethyl-2-fluorophenyl)pyrimidin-2-yl)-N-methyl-3-(methylsulfinyl)-1H-indole-6-carboxamide] | 93
13 | Cc1ccc(F)c(-c2cnc(-n3cc([S+](C)[O-])c4ccc(C(=O)N(C)CC(N)=O)cc43)nc2)c1 (centres unmarked) [Example 281, N-(2-Amino-2-oxoethyl)-1-(5-(2-fluoro-5-methylphenyl)pyrimidin-2-yl)-N-methyl-3-(methylsulfinyl)-1H-indole-6-carboxamide] | 97

Results, then the compound that gave them:

Row | inhibition at 1 µM [%] | Compound
14 | 96 | CC(C)c1ccnc(-c2cnc(-n3cc([S+](C)[O-])c4ccc(C(=O)N5CCOCC5)cc43)nc2)c1 (centres unmarked) [Example 256, (1-(5-(4-Isopropylpyridin-2-yl)pyrimidin-2-yl)-3-(methylsulfinyl)-1H-indol-6-yl)(morpholino)methanone]
15 | 93 | CC#Cc1ccnc(-c2cnc(-n3cc([S+](C)[O-])c4ccc(C(=O)N5CCOCC5)cc43)nc2)c1 (centres unmarked) [Example 257, (3-(Methylsulfinyl)-1-(5-(4-(prop-1-yn-1-yl)pyridin-2-yl)pyrimidin-2-yl)-1H-indol-6-yl)(morpholino)methanone]
16 | 95 | CCc1ccnc(-c2cnc(-n3cc([S+](C)[O-])c4ccc(C(=O)N5CCOCC5)cc43)nc2)c1 (centres unmarked) [Example 259]
17 | 98 | CCN(C)C(=O)c1ccc2c([S+](C)[O-])cn(-c3ncc(-c4cc(C)ccc4F)cn3)c2c1 (centres unmarked) [Example 266, N-Ethyl-1-(5-(2-fluoro-5-methylphenyl)pyrimidin-2-yl)-N-methyl-3-(methylsulfinyl)-1H-indole-6-carboxamide]
18 | 94 | Cc1ccc(F)c(-c2cnc(-n3cc([S+](C)[O-])c4ccc(C(=O)N(C)C)cc43)nc2)c1 (centres unmarked) [Example 267, 1-(5-(2-Fluoro-5-methylphenyl)pyrimidin-2-yl)-N,N-dimethyl-3-(methylsulfinyl)-1H-indole-6-carboxamide]
19 | 95 | COc1ccc(F)c(-c2cnc(-n3cc([S+](C)[O-])c4ccc(C(=O)N(C)C)cc43)nc2)c1 (centres unmarked) [Example 268, 1-(5-(2-Fluoro-5-methoxyphenyl)pyrimidin-2-yl)-N,N-dimethyl-3-(methylsulfinyl)-1H-indole-6-carboxamide]
20 | 97 | Cc1ccnc(-c2cnc(-n3cc([S+](C)[O-])c4ccc(C(=O)N5CCCC5)cc43)nc2)c1 (centres unmarked) [Example 269, (1-(5-(4-Methylpyridin-2-yl)pyrimidin-2-yl)-3-(methylsulfinyl)-1H-indol-6-yl)(pyrrolidin-1-yl)methanone]
21 | 102 | Cc1ccnc(-c2cnc(-n3cc([S+](C)[O-])c4ccc(C(=O)N(C)C)cc43)nc2)c1 (centres unmarked) [Example 270, N,N-Dimethyl-1-(5-(4-methylpyridin-2-yl)pyrimidin-2-yl)-3-(methylsulfinyl)-1H-indole-6-carboxamide]
22 | 97 | CCN(C)C(=O)c1ccc2c([S+](C)[O-])cn(-c3ncc(-c4cc(C)ccn4)cn3)c2c1 (centres unmarked) [Example 271, N-Ethyl-N-methyl-1-(5-(4-methylpyridin-2-yl)pyrimidin-2-yl)-3-(methylsulfinyl)-1H-indole-6-carboxamide]
23 | 93 | CN(C)C(=O)c1ccc2c([S+](C)[O-])cn(-c3ncc(-c4cc(N(C)C)ccn4)cn3)c2c1 (centres unmarked) [Example 272, 1-(5-(4-(Dimethylamino)pyridin-2-yl)pyrimidin-2-yl)-N,N-dimethyl-3-(methylsulfinyl)-1H-indole-6-carboxamide]
24 | 91 | CN(C)C(=O)c1ccc2c([S+](C)[O-])cn(-c3ncc(-c4cc(N)ccn4)cn3)c2c1 (centres unmarked) [Example 273, 1-(5-(4-Aminopyridin-2-yl)pyrimidin-2-yl)-N,N-dimethyl-3-(methylsulfinyl)-1H-indole-6-carboxamide]
25 | 104 | CCc1ccc(F)c(-c2cnc(-n3cc([S+](C)[O-])c4ccc(C(=O)N(C)C)cc43)nc2)c1 (centres unmarked) [Example 274, 1-(5-(5-Ethyl-2-fluorophenyl)pyrimidin-2-yl)-N,N-dimethyl-3-(methylsulfinyl)-1H-indole-6-carboxamide]
26 | 93 | CCc1ccnc(-c2cnc(-n3cc([S+](C)[O-])c4ccc(C(=O)N5CCCC5)cc43)nc2)c1 (centres unmarked) [Example 277, (1-(5-(4-Ethylpyridin-2-yl)pyrimidin-2-yl)-3-(methylsulfinyl)-1H-indol-6-yl)(pyrrolidin-1-yl)methanone]
27 | 92 | CCc1ccnc(-c2cnc(-n3cc([S+](C)[O-])c4ccc(C(=O)N(C)C)cc43)nc2)c1 (centres unmarked) [Example 278, 1-(5-(4-Ethylpyridin-2-yl)pyrimidin-2-yl)-N,N-dimethyl-3-(methylsulfinyl)-1H-indole-6-carboxamide]
28 | 90 | Cc1ccnc(-c2cnc(-n3cc([S+](C)[O-])c4ccc(C(=O)N(C)CC(N)=O)cc43)nc2)c1 (centres unmarked) [Example 282, N-(2-Amino-2-oxoethyl)-N-methyl-1-(5-(4-methylpyridin-2-yl)pyrimidin-2-yl)-3-(methylsulfinyl)-1H-indole-6-carboxamide]
29 | 92 | COc1ccnc(-c2cnc(-n3cc([S+](C)[O-])c4ccc(C(=O)N(C)CC(N)=O)cc43)nc2)c1 (centres unmarked) [Example 283, N-(2-Amino-2-oxoethyl)-1-(5-(4-methoxypyridin-2-yl)pyrimidin-2-yl)-N-methyl-3-(methylsulfinyl)-1H-indole-6-carboxamide]
